≈ marks a conversion by molar mass, not a printed value.
Experiments:
Assay type in all cases: functional
[1] = tested on: Staphylococcus aureus; assay: Antimicrobial activity against methicillin-resistant Staphylococcus aureus 309-7 clinical isolate after 16 hrs by broth microdilution method; details: 309-7, 16 h
[2] = tested on: Staphylococcus aureus; assay: Antimicrobial activity against methicillin-resistant Staphylococcus aureus 8-24 clinical isolate after 16 hrs by broth microdilution method; details: 8-24, 16 h
[3] = tested on: Staphylococcus aureus; assay: Antimicrobial activity against methicillin-resistant Staphylococcus aureus 309-4 clinical isolate after 16 hrs by broth microdilution method; details: 309-4, 16 h
[4] = tested on: Enterococcus faecalis; assay: Antimicrobial activity against vancomycin-susceptible Enterococcus faecalis after 16 hrs by broth microdilution method
[5] = tested on: Pseudomonas aeruginosa; assay: Antimicrobial activity against Pseudomonas aeruginosa PAO1 after 16 hrs by broth microdilution method; details: PAO1, 16 h
[6] = tested on: Staphylococcus aureus; assay: Antimicrobial activity against methicillin-resistant Staphylococcus aureus 6-42 clinical isolate after 16 hrs by broth microdilution method; details: 6-42, 16 h
[7] = tested on: Staphylococcus aureus; assay: Antimicrobial activity against Staphylococcus aureus ATCC 6538 after 16 hrs by broth microdilution method; details: ATCC 6538, 16 h
[8] = tested on: Staphylococcus aureus; assay: Antimicrobial activity against methicillin-resistant Staphylococcus aureus 8-21 clinical isolate after 16 hrs by broth microdilution method; details: 8-21, 16 h
[9] = tested on: Staphylococcus aureus; assay: Antimicrobial activity against methicillin-resistant Staphylococcus aureus 309-8 clinical isolate after 16 hrs by broth microdilution method; details: 309-8, 16 h
[10] = tested on: Bacillus spizizenii; assay: Antimicrobial activity against Bacillus subtilis ATCC 6633 after 16 hrs by broth microdilution method; details: ATCC 6633, 16 h
[11] = tested on: Staphylococcus aureus; assay: Antimicrobial activity against methicillin-resistant Staphylococcus aureus Chaoyang clinical isolate after 16 hrs by broth microdilution method
[12] = tested on: Enterococcus faecalis; assay: Antimicrobial activity against Enterococcus faecalis VRE-309 after 16 hrs by broth microdilution method; details: VRE-309, 16 h
[13] = tested on: Staphylococcus aureus; assay: Antimicrobial activity against methicillin-resistant Staphylococcus aureus 309-3 clinical isolate after 16 hrs by broth microdilution method; details: 309-3, 16 h
[14] = tested on: Staphylococcus aureus; assay: Antimicrobial activity against methicillin-resistant Staphylococcus aureus 309-1 clinical isolate after 16 hrs by broth microdilution method; details: 309-1, 16 h
[15] = tested on: Staphylococcus aureus; assay: Antimicrobial activity against methicillin-resistant Staphylococcus aureus 309-6 clinical isolate after 16 hrs by broth microdilution method; details: 309-6, 16 h
[16] = tested on: Klebsiella pneumoniae; assay: Antimicrobial activity against Klebsiella pneumoniae KP-249 clinical isolate after 16 hrs by broth microdilution method; details: KP-249, 16 h
[17] = tested on: Staphylococcus aureus; assay: Antimicrobial activity against methicillin-resistant Staphylococcus aureus 6281 clinical isolate after 16 hrs by broth microdilution method; details: Staphylococcus aureus, 6281, 16 h

| Compound | MIC [1] | MIC [2] | MIC [3] | MIC [4] | MIC [5] | MIC [6] | MIC [7] | MIC [8] | MIC [9] | MIC [10] | MIC [11] | MIC [12] | MIC [13] | MIC [14] | MIC [15] | MIC [16] | MIC [17] |
| --- | --- | --- | --- | --- | --- | --- | --- | --- | --- | --- | --- | --- | --- | --- | --- | --- | --- |
| O=C1Nc2c(I)cccc2/C1=N/NC(=S)Nc1cccc(Cl)c1 | 3.12 µg/mL (≈ 6.83 µM) | 3.12 µg/mL (≈ 6.83 µM) | 1.56 µg/mL (≈ 3.42 µM) | 12.5 µg/mL (≈ 27.4 µM) | > 100 µg/mL | 3.12 µg/mL (≈ 6.83 µM) | 3.12 µg/mL (≈ 6.83 µM) | 6.25 µg/mL (≈ 13.7 µM) | 6.25 µg/mL (≈ 13.7 µM) | ≤ 0.78 µg/mL | 0.78 µg/mL (≈ 1.71 µM) | 3.12 µg/mL (≈ 6.83 µM) | 3.12 µg/mL (≈ 6.83 µM) | 3.12 µg/mL (≈ 6.83 µM) | 6.25 µg/mL (≈ 13.7 µM) | > 100 µg/mL | 6.25 µg/mL (≈ 13.7 µM) |
| COc1cccc(NC(=S)N/N=C2\C(=O)Nc3c(I)cccc32)c1 | 3.12 µg/mL (≈ 6.9 µM) | 6.25 µg/mL (≈ 13.8 µM) | 6.25 µg/mL (≈ 13.8 µM) | > 100 µg/mL | > 100 µg/mL | 3.12 µg/mL (≈ 6.9 µM) | > 100 µg/mL | 6.25 µg/mL (≈ 13.8 µM) | 25 µg/mL (≈ 55.3 µM) | 1.56 µg/mL (≈ 3.45 µM) | 1.56 µg/mL (≈ 3.45 µM) | 25 µg/mL (≈ 55.3 µM) | 12.5 µg/mL (≈ 27.6 µM) | 6.25 µg/mL (≈ 13.8 µM) | 25 µg/mL (≈ 55.3 µM) | > 100 µg/mL | 25 µg/mL (≈ 55.3 µM) |
| Cc1cccc(NC(=S)N/N=C2\C(=O)Nc3c(I)cccc32)c1 | 0.78 µg/mL (≈ 1.79 µM) | 1.56 µg/mL (≈ 3.58 µM) | 1.56 µg/mL (≈ 3.58 µM) | 12.5 µg/mL (≈ 28.7 µM) | > 100 µg/mL | 1.56 µg/mL (≈ 3.58 µM) | 3.12 µg/mL (≈ 7.15 µM) | 1.56 µg/mL (≈ 3.58 µM) | 1.56 µg/mL (≈ 3.58 µM) | ≤ 0.78 µg/mL | 0.78 µg/mL (≈ 1.79 µM) | 3.12 µg/mL (≈ 7.15 µM) | 3.12 µg/mL (≈ 7.15 µM) | 1.56 µg/mL (≈ 3.58 µM) | 3.12 µg/mL (≈ 7.15 µM) | > 100 µg/mL | 6.25 µg/mL (≈ 14.3 µM) |
| O=C1Nc2c(I)cccc2/C1=N/NC(=S)Nc1ccc(Cl)cc1 | 0.78 µg/mL (≈ 1.71 µM) | 1.56 µg/mL (≈ 3.42 µM) | 0.78 µg/mL (≈ 1.71 µM) | 6.25 µg/mL (≈ 13.7 µM) | > 100 µg/mL | 1.56 µg/mL (≈ 3.42 µM) | 1.56 µg/mL (≈ 3.42 µM) | 1.56 µg/mL (≈ 3.42 µM) | 1.56 µg/mL (≈ 3.42 µM) | ≤ 0.78 µg/mL | 0.78 µg/mL (≈ 1.71 µM) | 3.12 µg/mL (≈ 6.83 µM) | 1.56 µg/mL (≈ 3.42 µM) | 1.56 µg/mL (≈ 3.42 µM) | 3.12 µg/mL (≈ 6.83 µM) | > 100 µg/mL | 3.12 µg/mL (≈ 6.83 µM) |
| O=C1Nc2c(I)cccc2/C1=N/NC(=S)Nc1ccc(Br)cc1 | 1.56 µg/mL (≈ 3.11 µM) | 3.12 µg/mL (≈ 6.23 µM) | 1.56 µg/mL (≈ 3.11 µM) | 12.5 µg/mL (≈ 24.9 µM) | > 100 µg/mL | 1.56 µg/mL (≈ 3.11 µM) | 3.12 µg/mL (≈ 6.23 µM) | 3.12 µg/mL (≈ 6.23 µM) | 3.12 µg/mL (≈ 6.23 µM) | ≤ 0.78 µg/mL | 0.78 µg/mL (≈ 1.56 µM) | 3.12 µg/mL (≈ 6.23 µM) | 3.12 µg/mL (≈ 6.23 µM) | 1.56 µg/mL (≈ 3.11 µM) | 6.25 µg/mL (≈ 12.5 µM) | > 100 µg/mL | 3.12 µg/mL (≈ 6.23 µM) |
| COc1ccc(NC(=S)N/N=C2\C(=O)Nc3c(I)cccc32)cc1 | 1.56 µg/mL (≈ 3.45 µM) | 6.25 µg/mL (≈ 13.8 µM) | 6.25 µg/mL (≈ 13.8 µM) | > 100 µg/mL | > 100 µg/mL | 3.12 µg/mL (≈ 6.9 µM) | > 100 µg/mL | 6.25 µg/mL (≈ 13.8 µM) | 6.25 µg/mL (≈ 13.8 µM) | 3.12 µg/mL (≈ 6.9 µM) | 1.56 µg/mL (≈ 3.45 µM) | > 100 µg/mL | 12.5 µg/mL (≈ 27.6 µM) | 6.25 µg/mL (≈ 13.8 µM) | 25 µg/mL (≈ 55.3 µM) | > 100 µg/mL | 12.5 µg/mL (≈ 27.6 µM) |
| Cc1ccc(NC(=S)N/N=C2\C(=O)Nc3c(I)cccc32)cc1 | 0.78 µg/mL (≈ 1.79 µM) | 3.12 µg/mL (≈ 7.15 µM) | 1.56 µg/mL (≈ 3.58 µM) | 12.5 µg/mL (≈ 28.7 µM) | > 100 µg/mL | 0.78 µg/mL (≈ 1.79 µM) | 6.25 µg/mL (≈ 14.3 µM) | 1.56 µg/mL (≈ 3.58 µM) | 1.56 µg/mL (≈ 3.58 µM) | 1.56 µg/mL (≈ 3.58 µM) | 0.78 µg/mL (≈ 1.79 µM) | 3.12 µg/mL (≈ 7.15 µM) | 3.12 µg/mL (≈ 7.15 µM) | 3.12 µg/mL (≈ 7.15 µM) | 3.12 µg/mL (≈ 7.15 µM) | > 100 µg/mL | 6.25 µg/mL (≈ 14.3 µM) |
| COc1ccccc1NC(=S)N/N=C1\C(=O)Nc2c(F)cccc21 | > 100 µg/mL | > 100 µg/mL | > 100 µg/mL | > 100 µg/mL | > 100 µg/mL | > 100 µg/mL | > 100 µg/mL | > 100 µg/mL | > 100 µg/mL | > 100 µg/mL | > 100 µg/mL | > 100 µg/mL | > 100 µg/mL | > 100 µg/mL | > 100 µg/mL | > 100 µg/mL | > 100 µg/mL |
| O=C1Nc2c(I)cccc2/C1=N/NC(=S)Nc1cccc(F)c1 | 0.78 µg/mL (≈ 1.77 µM) | 1.56 µg/mL (≈ 3.54 µM) | 0.78 µg/mL (≈ 1.77 µM) | 6.25 µg/mL (≈ 14.2 µM) | > 100 µg/mL | 0.78 µg/mL (≈ 1.77 µM) | 1.56 µg/mL (≈ 3.54 µM) | 1.56 µg/mL (≈ 3.54 µM) | 0.78 µg/mL (≈ 1.77 µM) | ≤ 0.78 µg/mL | 0.78 µg/mL (≈ 1.77 µM) | 3.12 µg/mL (≈ 7.09 µM) | 1.56 µg/mL (≈ 3.54 µM) | 0.78 µg/mL (≈ 1.77 µM) | 1.56 µg/mL (≈ 3.54 µM) | > 100 µg/mL | 3.12 µg/mL (≈ 7.09 µM) |
| O=C1Nc2c(I)cccc2/C1=N/NC(=S)Nc1ccc(F)cc1 | 0.78 µg/mL (≈ 1.77 µM) | 1.56 µg/mL (≈ 3.54 µM) | 1.56 µg/mL (≈ 3.54 µM) | 6.25 µg/mL (≈ 14.2 µM) | > 100 µg/mL | 0.78 µg/mL (≈ 1.77 µM) | 1.56 µg/mL (≈ 3.54 µM) | 1.56 µg/mL (≈ 3.54 µM) | 1.56 µg/mL (≈ 3.54 µM) | ≤ 0.78 µg/mL | 0.78 µg/mL (≈ 1.77 µM) | 3.12 µg/mL (≈ 7.09 µM) | 1.56 µg/mL (≈ 3.54 µM) | 3.12 µg/mL (≈ 7.09 µM) | 3.12 µg/mL (≈ 7.09 µM) | > 100 µg/mL | 3.12 µg/mL (≈ 7.09 µM) |
| O=C(O)c1cn(C2CC2)c2cc(N3CCNCC3)c(F)cc2c1=O [CIPROFLOXACIN] | – | – | – | – | 1 µg/mL (≈ 3.02 µM) | – | – | – | – | – | – | – | – | – | – | – | – |
| COc1cccc(OC)c1C(=O)N[C@@H]1C(=O)N2[C@@H]1SC(C)(C)[C@@H]2C(=O)O [METHICILLIN] | > 200 µg/mL | > 200 µg/mL | > 200 µg/mL | – | – | > 200 µg/mL | – | > 200 µg/mL | > 200 µg/mL | – | – | – | > 200 µg/mL | > 200 µg/mL | > 200 µg/mL | – | > 200 µg/mL |
| CN[C@H](CC(C)C)C(=O)N[C@H]1C(=O)N[C@@H](CC(N)=O)C(=O)N[C@H]2C(=O)N[C@H]3C(=O)N[C@H](C(=O)N[C@H](C(=O)O)c4cc(O)cc(O)c4-c4cc3ccc4O)[C@H](O)c3ccc(c(Cl)c3)Oc3cc2cc(c3O[C@@H]2O[C@H](CO)[C@@H](O)[C@H](O)[C@H]2O[C@H]2C[C@](C)(N)[C@H](O)[C@H](C)O2)Oc2ccc(cc2Cl)[C@H]1O [VANCOMYCIN] | – | – | – | 2 µg/mL (≈ 1.38 µM) | – | – | – | – | – | 0.5 µg/mL (≈ 0.345 µM) | – | > 8 µg/mL | – | – | – | – | – |

Source: ChEMBL document CHEMBL3611970, “Synthesis and evaluation of isatin-β-thiosemicarbazones as novel agents against antibiotic-resistant Gram-positive bacterial species” (2015)
